Source: patent US20230295197A1, “STAT5 and STAT6 Degraders and Uses Thereof” (REGENTS OF THE UNIVERSITY OF MICHICAN, priority 2022, published 2023)
Read-outs that look alike come from different tables or passages of the source.

Molecular target: T1, STAT6 (Homo sapiens, UniProt P42226)
T1 construct: endogenous in cells; host or cells: MOLM-16, KU-812, SKNO1, MB231, L1236
T1 sequence (P42226 1-847): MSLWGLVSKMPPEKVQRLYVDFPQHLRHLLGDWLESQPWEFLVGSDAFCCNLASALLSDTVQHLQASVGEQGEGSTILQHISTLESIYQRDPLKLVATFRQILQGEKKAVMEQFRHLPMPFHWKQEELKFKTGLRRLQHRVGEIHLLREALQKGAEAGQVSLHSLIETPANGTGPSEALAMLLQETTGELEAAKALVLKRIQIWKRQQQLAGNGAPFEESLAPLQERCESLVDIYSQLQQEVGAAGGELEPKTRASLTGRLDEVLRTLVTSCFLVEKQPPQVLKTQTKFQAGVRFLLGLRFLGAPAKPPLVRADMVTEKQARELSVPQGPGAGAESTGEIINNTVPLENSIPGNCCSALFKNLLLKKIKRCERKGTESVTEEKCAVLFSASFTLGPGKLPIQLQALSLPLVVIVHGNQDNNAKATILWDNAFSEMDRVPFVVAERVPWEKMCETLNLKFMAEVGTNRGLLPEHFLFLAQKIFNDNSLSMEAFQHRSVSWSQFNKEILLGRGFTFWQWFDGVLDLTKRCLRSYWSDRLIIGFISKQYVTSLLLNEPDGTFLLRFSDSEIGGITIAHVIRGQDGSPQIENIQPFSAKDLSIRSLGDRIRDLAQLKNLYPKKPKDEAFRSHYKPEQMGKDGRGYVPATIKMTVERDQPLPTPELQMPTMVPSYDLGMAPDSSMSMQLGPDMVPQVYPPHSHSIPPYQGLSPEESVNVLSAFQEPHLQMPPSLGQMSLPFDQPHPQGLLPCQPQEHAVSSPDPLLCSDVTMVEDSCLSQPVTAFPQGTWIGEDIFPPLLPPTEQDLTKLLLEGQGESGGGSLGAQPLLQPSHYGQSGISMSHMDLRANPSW
Assay: Immunoblotting (Western blot) analysis of STAT6 degradation efficiency of degraders in treated cells
Type: cell-based
Method: Evaluation of the degradation efficiency of degraders may be accomplished by immunoblotting analysis. The representative general protocol is the following:
Cells are maintained in the appropriate culture medium with 10% FBS at 37° C. and an atmosphere of 5% CO2. Cell lines are used within three months of thawing fresh vials. Cells are lysed 1× Cell Lysis Buffer (Cell Signaling Technology, #9803), resolved by SDS-PAGE NuPAGE gel (Thermo Fisher Scientific), and transferred to a PVDF membrane (Millipore). Membranes are blocked using Odyssey TBS Blocker Buffer (LI-COR). IRDye 680RD and 800CW Dye-labeled secondary antibodies (LI-COR) are used. The washed membranes are scanned using Odyssey CLx imager (LI-COR). The intensity of Western blot signaling is quantitated using the Odyssey software. Primary antibodies used are: STAT5 Rabbit mAb (Cell Signaling Technology, #94205), STAT6 Rabbit mAb (Cell Signaling Technology, #5397) and GAPDH mouse monoclonal antibody (Santa Cruz Biotechnology, sc-47724).
To evaluate the degradation efficiency of degraders, immunoblotting analysis was performed. The general protocol is the following.
About 1 million cells for each data point were treated with compounds at indicated concentrations and durations. Untreated and treated cells in cell culture medium were transferred into tubes, followed by centrifugation at 3,000 rpm and 4° C. for 6 min Supernatants were removed from tubes and radioimmunoprecipitation assay (RIPA) lysis buffer supplemented with 1% protease inhibitor cocktail (Fisher Scientific cat. PI87786) and phosphatase inhibitor (Roche cat. 04906837001) were added to tubes containing the remaining cell pellets. The tubes were then left on ice for 30 min and placed in a −80° C. freezer. Subsequently they were thawed in 37° C. water, then centrifuged at 14,000 rpm for 15 min and the cell lysates transferred to new tubes. The concentration of total proteins in each tube was calculated using the Pierce BCA protein Assay kit (cat. 23225). Based on the calculated protein concentration, cell lysates containing approximately the same amount of proteins were transferred to new tubes, then distilled water and 4× Protein Sample Loading Buffer for Western Blots (LI-COR cat. 928-40004) supplemented with 20% of mercaptoethanol (Sigma Aldrich cat. M6250) were added on ice. The cell lysates were then reduced and denatured at 95° C. for 5 min. From the tubes containing cell lysates an equal amount of protein samples (20-40 μg) was loaded into precast 8%, 10%, 4%-12%, or 4%-20% Tris-glycine gels (Novex) filled with Tris-glycine SDS running buffer. After the proteins were resolved, they were transferred onto Immobile-FL PVDF Membrane (Millipore Sigma cat. IPFL00010), using Mini Trans-Blot Electrophoretic Transfer Cell (Bio-Rad 1703930). The membranes were blocked with Intercept Blocking Buffer (LI-COR cat. 927-70001) in LI-COR Western Blot boxes for 1 h at rt. The membranes were washed with 1× Tris-buffered saline-Tween-20 (TBST, 1× solution was made from 20×TBST solution, ThermoFisher Scientific cat. 28360) for 5 min 4 times. The membranes were incubated overnight at 4° C. in Intercept Blocking Buffer supplemented with primary antibodies (normally antibody:buffer 1:1000) and Tween-20. The membranes were washed with TBST for 5 min 4 times and were incubated with Intercept Blocking Buffer supplemented with IRDye 800CE Secondary Antibodies, IRDye 680RD Secondary Antibodies (LI-COR biosciences), Tween-20, and 10% SDS solution, for 1 h at rt. The membranes were then washed with TBST for 5 min 4 times and rinsed with deionized water before drying and scanning with Odyssey Dlx Amazing System (LI-COR). The immunoblots were finally quantified by the software.

[1] = MOLM-16 cells, class symbols, read-out: DC50 S6 MOLM-16
[2] = L1236 cells, read-out: DC50 S6 L1236

CC(C)(C)c1ccc(C[C@H](NC(=O)c2cc3cc(C(F)(F)P(=O)(O)O)ccc3s2)C(=O)N2C[C@@H](OCCCCCCC#Cc3cccc4c3CN(C3CCC(=O)NC3=O)C4=O)C[C@H]2C(=O)N2CCO[C@H](c3ccccc3)C2)cc1 (stereo partly drawn) [Compound 589, ((2-(((2S)-3-(4-(tert-butyl)phenyl)-1-((2S,4S)-4-((8-(2-(2,6-dioxopiperidin-3-yl)-1-oxoisoindolin-4-yl)oct-7-yn-1-yl)oxy)-2-((R)-2-phenylmorpholine-4-carbonyl)pyrrolidin-1-yl)-1-oxopropan-2-yl)carbamoyl)benzo[b]thiophen-5-yl)difluoromethyl)phosphonic acid]
DC50 [1]: 1 to 10 µM

Cc1ncsc1-c1ccc([C@H](C)NC(=O)[C@@H]2C[C@@H](O)CN2C(=O)[C@@H](NC(=O)CCCCCCCCNC(=O)CC(=O)N2CCN(C(=O)[C@@H](NC(=O)c3cc4cc(C(F)(F)P(=O)(O)O)ccc4s3)C(C)(C)C)[C@H](C(=O)N3CCC[C@H](c4ccccc4)C3)C2)C(C)(C)C)cc1 [Compound 459, (difluoro(2-(((S)-1-((S)-4-(3-((9-(((S)-1-((2S,4R)-4-hydroxy-2-(((S)-1-(4-(4-methylthiazol-5-yl)phenyl)ethyl)carbamoyl)pyrrolidin-1-yl)-3,3-dimethyl-1-oxobutan-2-yl)amino)-9-oxononyl)amino)-3-oxopropanoyl)-2-((R)-3-phenylpiperidine-1-carbonyl)piperazin-1-yl)-3,3-dimethyl-1-oxobutan-2-yl)carbamoyl)benzo[b]thiophen-5-yl)methyl)phosphonic acid]
DC50 [2]: > 10 µM | DC50 [1]: > 10 µM

CC(C)(C)[C@H](NC(=O)c1cc2cc(C(F)(F)P(=O)(O)O)ccc2s1)C(=O)N1C[C@@H](OCC(=O)NCCCCCCCCCC#Cc2ccc3c(c2)C(=O)N(C2CCC(=O)NC2=O)C3=O)C[C@H]1C(=O)N1CCC[C@H](c2ccccc2)C1 (stereo partly drawn) [Compound 506, ((2-(((2S)-1-((2S,4S)-4-(2-((11-(2-(2,6-dioxopiperidin-3-yl)-1,3-dioxoisoindolin-5-yl)undec-10-yn-1-yl)amino)-2-oxoethoxy)-2-((R)-3-phenylpiperidine-1-carbonyl)pyrrolidin-1-yl)-3,3-dimethyl-1-oxobutan-2-yl)carbamoyl)benzo[b]thiophen-5-yl)difluoromethyl)phosphonic acid]
DC50 [1]: > 10 µM

CC(C)(C)[C@H](NC(=O)c1cc2cc(C(F)(F)P(=O)(O)O)ccc2s1)C(=O)N1C[C@@H](OCC(=O)NCCCCC#Cc2cccc3c2C(=O)N(C2CCC(=O)NC2=O)C3=O)C[C@H]1C(=O)N1CCC[C@H](c2ccccc2)C1 (stereo partly drawn) [Compound 499, ((2-(((2S)-1-((2S,4S)-4-(2-((6-(2-(2,6-dioxopiperidin-3-yl)-1,3-dioxoisoindolin-4-yl)hex-5-yn-1-yl)amino)-2-oxoethoxy)-2-((R)-3-phenylpiperidine-1-carbonyl)pyrrolidin-1-yl)-3,3-dimethyl-1-oxobutan-2-yl)carbamoyl)benzo[b]thiophen-5-yl)difluoromethyl)phosphonic acid]
DC50 [1]: > 10 µM

CC(C)(C)[C@H](NC(=O)c1cc2cc(C(F)(F)P(=O)(O)O)ccc2s1)C(=O)N1Cc2cc(OCC(=O)NCCC#Cc3ccc4c(c3)C(=O)N(C3CCC(=O)NC3=O)C4=O)ccc2C[C@H]1C(=O)N1CCC[C@H](c2ccccc2)C1 (stereo partly drawn) [Compound 552, ((2-(((2S)-1-((3S)-7-(2-((4-(2-(2,6-dioxopiperidin-3-yl)-1,3-dioxoisoindolin-5-yl)but-3-yn-1-yl)amino)-2-oxoethoxy)-3-((R)-3-phenylpiperidine-1-carbonyl)-3,4-dihydroisoquinolin-2(1H)-yl)-3,3-dimethyl-1-oxobutan-2-yl)carbamoyl)benzo[b]thiophen-5-yl)difluoromethyl)phosphonic acid]
DC50 [1]: > 10 µM

CC(C)(C)[C@H](NC(=O)c1cc2cc(C(F)(F)P(=O)(O)O)ccc2s1)C(=O)N1C[C@@H](OCCCCCCCC#Cc2cccc3c2CN(C2CCC(=O)NC2=O)C3=O)C[C@H]1C(=O)N1CCO[C@H](c2ccccc2)C1 (stereo partly drawn) [Compound 595, ((2-(((2S)-1-((2S,4S)-4-((9-(2-(2,6-dioxopiperidin-3-yl)-1-oxoisoindolin-4-yl)non-8-yn-1-yl)oxy)-2-((R)-2-phenylmorpholine-4-carbonyl)pyrrolidin-1-yl)-3,3-dimethyl-1-oxobutan-2-yl)carbamoyl)benzo[b]thiophen-5-yl)difluoromethyl)phosphonic acid]
DC50 [1]: < 0.1 µM

Cc1ncsc1-c1ccc([C@H](C)NC(=O)[C@@H]2C[C@@H](O)CN2C(=O)[C@@H](NC(=O)CCCCCCCNC(=O)COc2ccc3c(c2)CN(C(=O)[C@@H](NC(=O)c2cc4cc(C(F)(F)P(=O)(O)O)ccc4s2)C(C)(C)C)[C@H](C(=O)N2CCO[C@H](c4ccccc4)C2)C3)C(C)(C)C)cc1 [Compound 467, (difluoro(2-(((S)-1-((S)-7-(2-((8-(((S)-1-((2S,4R)-4-hydroxy-2-(((S)-1-(4-(4-methylthiazol-5-yl)phenyl)ethyl)carbamoyl)pyrrolidin-1-yl)-3,3-dimethyl-1-oxobutan-2-yl)amino)-8-oxooctyl)amino)-2-oxoethoxy)-3-((R)-2-phenylmorpholine-4-carbonyl)-3,4-dihydroisoquinolin-2(1H)-yl)-3,3-dimethyl-1-oxobutan-2-yl)carbamoyl)benzo[b]thiophen-5-yl)methyl)phosphonic acid]
DC50 [2]: > 10 µM | DC50 [1]: > 10 µM

Cc1cc([C@H](C(=O)N2C[C@H](O)C[C@H]2C(=O)N[C@@H](CC(=O)NCCCCCCCCNC(=O)CCN(C(=O)[C@@H]2CCCN2C(=O)[C@@H](NC(=O)c2cc3cc(C(F)(F)P(=O)(O)O)ccc3s2)C(C)(C)C)c2ccc(Br)cc2)c2ccc(-c3scnc3C)cc2)C(C)C)on1 [Compound 408, ((2-(((S)-1-((S)-2-((4-bromophenyl)(3-((8-((S)-3-((2S,4R)-4-hydroxy-1-((R)-3-methyl-2-(3-methylisoxazol-5-yl)butanoyl)pyrrolidine-2-carboxamido)-3-(4-(4-methylthiazol-5-yl)phenyl)propanamido)octyl)amino)-3-oxopropyl)carbamoyl)pyrrolidin-1-yl)-3,3-dimethyl-1-oxobutan-2-yl)carbamoyl)benzo[b]thiophen-5-yl)difluoromethyl)phosphonic acid]
DC50 (MB231 cells, read-out: DC50 S6 MB231): > 10 µM
